Results from ChEMBL document CHEMBL1201862, “PubChem BioAssay data set” (2004).
Active and inactive are the calls of the source.

What was measured:
[1] = molecular target: Mitogen-activated protein kinase 10 (Homo sapiens, UniProt P53779); experiment: Dose response biochemical screening assay for inhibitors of c-Jun N-Terminal Kinase 3 (JNK3). [Related pubchem assays: 746 ]
[2] = HGIII-sPLA2 enzyme inhibition potency – biochemical, QFRET, IC50, dose response (AID 743457);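 also: green fluorescence rise as the enzyme cleaves BODIPY PC-A2 in liposomes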
[3] = molecular target: T1, DNA repair protein RAD52 homolog (Homo sapiens, UniProt P43351); format: functional, biochemical
T1 sequence (P43351 whole entry): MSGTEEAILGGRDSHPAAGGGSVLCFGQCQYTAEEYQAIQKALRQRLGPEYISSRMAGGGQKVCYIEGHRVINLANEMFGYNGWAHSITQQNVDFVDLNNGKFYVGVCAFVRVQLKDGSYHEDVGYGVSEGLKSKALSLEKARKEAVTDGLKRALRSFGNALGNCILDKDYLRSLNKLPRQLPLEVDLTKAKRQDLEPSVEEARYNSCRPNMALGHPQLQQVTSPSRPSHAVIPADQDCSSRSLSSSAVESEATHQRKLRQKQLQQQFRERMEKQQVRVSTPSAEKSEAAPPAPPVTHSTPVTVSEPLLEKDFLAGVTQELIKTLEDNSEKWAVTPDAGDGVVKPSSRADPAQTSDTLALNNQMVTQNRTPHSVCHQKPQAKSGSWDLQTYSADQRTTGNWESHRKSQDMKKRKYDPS

[4] = molecular target: T2, DNA repair and recombination protein RAD54-like (Homo sapiens, UniProt Q92698); experiment: RAD54 Holliday junction migration blockers – biochemical, fluorescence, cherry-picked samples, dose series, confirmation (AID 651657); format: functional
T2 sequence (Q92698 whole entry): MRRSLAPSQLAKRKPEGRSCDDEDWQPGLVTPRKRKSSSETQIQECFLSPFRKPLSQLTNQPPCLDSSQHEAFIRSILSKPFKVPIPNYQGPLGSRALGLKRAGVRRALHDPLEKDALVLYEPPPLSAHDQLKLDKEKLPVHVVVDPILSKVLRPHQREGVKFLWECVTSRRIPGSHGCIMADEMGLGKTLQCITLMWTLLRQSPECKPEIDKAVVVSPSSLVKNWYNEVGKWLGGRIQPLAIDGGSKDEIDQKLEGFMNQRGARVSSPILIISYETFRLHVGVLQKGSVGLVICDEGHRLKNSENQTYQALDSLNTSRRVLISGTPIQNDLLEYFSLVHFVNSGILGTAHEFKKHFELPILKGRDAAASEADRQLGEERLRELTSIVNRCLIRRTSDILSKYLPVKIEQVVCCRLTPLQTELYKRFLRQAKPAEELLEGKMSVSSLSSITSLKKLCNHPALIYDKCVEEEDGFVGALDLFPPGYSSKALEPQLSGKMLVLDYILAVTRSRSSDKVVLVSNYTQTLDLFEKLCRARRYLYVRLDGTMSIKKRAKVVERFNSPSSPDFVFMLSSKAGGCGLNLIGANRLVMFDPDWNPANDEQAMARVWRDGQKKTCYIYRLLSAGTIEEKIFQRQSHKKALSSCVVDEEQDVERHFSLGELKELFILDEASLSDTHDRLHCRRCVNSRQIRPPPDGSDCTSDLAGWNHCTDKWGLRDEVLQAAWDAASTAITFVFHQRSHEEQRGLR

[5] = blockers of HIV-1 envelope-mediated cell-cell fusion – cherry-pick, dose response (AID 652057); format: functional, cell-based
[6] = off-target signal loss in HeLa-CEM21 co-culture – HeLa F-luc CTL cells, cherry-picked, counter-screen for HIV-1 Env fusion inhibitor project, dose response (AID 652040); format: functional, cell-based;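 also: potency for signal decrease marking cytotoxic or nonspecific inhibition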
[7] = blockers of HIV-1 ZM109 envelope-driven cell-cell fusion – HeLa effector, CEM target cells, luciferase, cherry-pick, dose response (AID 652058); format: functional, cell-based;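 also: luciferase signal from HIV-1 Env mediated cell-cell fusion of effector and target cells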
[8] = HIV-1 AD8 envelope cell-cell fusion blockers – cherry-pick, dose response (AID 652062); format: functional, cell-based;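 also: luciferase signal from cell-cell fusion driven by HIV-1 clade B AD8 Env; potency is for inhibitors of fusion seen as a drop in luminescence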
[9] = viability loss in CEM21 cells – cell-based, CellTiter-Glo luminescence, cherry-picked, cytotoxicity control for viral fusion inhibitor project, dose response (AID 652042); format: functional;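 also: potency for signal decrease meaning cytotoxicity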
[10] = molecular target: Prothrombin (Homo sapiens, UniProt P00734); experiment: Thrombin 1536 HTS Dose Response Confirmation. [Related pubchem assays: 1046 (Thrombin 1536 HTS; hits were confirmed in this assay)]; format: functional
[11] = viability inhibitors of stage V gametocytes – luminescence, dose response (AID 1117278); format: functional, cell-based;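 also: gametocytes exposed to compound for 24 hours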
[12] = viability loss in human Jurkat cells – cell-based, luminescence, cytotoxicity control for P. falciparum gametocyte viability project, dose response (AID 1117277); format: functional;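 also: potency reflects loss of cellular ATP meaning fewer viable cells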
[13] = alpha-synuclein stem-loop luciferase translation blockers – H4 neuroglioma cells, luminescence, confirmation (AID 1988); format: functional, cell-based
[14] = luciferase reporter signal suppression in cells – H4 neuroglioma cells, luminescence, dose response (AID 1990); format: functional, cell-based
[15] = viability of uninfected HEp-2 cells – cell-based, HTS, cytotoxicity control for RSV inhibitor project, dose response (AID 2410); format: functional; conditions: human respiratory syncytial virus
[16] = Luminescence Cell-Based Dose Response HTS to Identify Inhibitors of 5'UTR Stem-Loop Driven Prion Protein mRNA Translation in H4 Neuroglioblastoma Cells. [Related pubchem assays: 1827 (Project Summary), 1813 (Primary HTS)]; format: functional
[17] = NIH3T3 cell viability loss – ATP luminescence, mouse fibroblasts, counter-screen, dose response (AID 2010); format: functional, cell-based;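 also: cells exposed to compound for about 90 hours before reading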
[18] = Trypanosoma cruzi growth suppression in host cells – NIH3T3 host cells, beta-gal luminescence, confirmation (AID 2044); format: functional, cell-based;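 also: intracellular parasites grown in NIH/3T3 mouse fibroblasts as host cells; luminescent beta-galactosidase reporter signal from transgenic T. cruzi replicating inside host cells; inhibitors lower the luminescence signal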
[19] = cells; format: functional, cell-based
[20] = cells; format: functional, cell-based; remark: listed apart in the source

Chain of Mitogen-activated protein kinase 10 (P53779 whole entry): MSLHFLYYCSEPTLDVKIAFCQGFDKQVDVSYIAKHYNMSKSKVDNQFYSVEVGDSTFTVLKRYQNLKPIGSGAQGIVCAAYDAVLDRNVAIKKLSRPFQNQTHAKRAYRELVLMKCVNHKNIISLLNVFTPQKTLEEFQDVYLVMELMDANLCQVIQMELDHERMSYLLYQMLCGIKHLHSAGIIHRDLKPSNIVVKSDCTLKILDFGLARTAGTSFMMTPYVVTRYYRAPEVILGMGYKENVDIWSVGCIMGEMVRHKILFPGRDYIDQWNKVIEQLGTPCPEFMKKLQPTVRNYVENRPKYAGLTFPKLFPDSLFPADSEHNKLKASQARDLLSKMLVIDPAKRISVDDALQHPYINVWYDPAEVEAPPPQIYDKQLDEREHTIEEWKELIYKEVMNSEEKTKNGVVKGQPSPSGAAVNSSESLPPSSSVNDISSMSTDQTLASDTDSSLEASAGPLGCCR

SMILES: COc1ccc(COC(=O)C2=C(C)NC(=O)NC2c2ccc(O)c(OC)c2)cc1 (stereo unspecified)
- IC50 [1]: 33.8 µM (not active)

SMILES: COc1ccc(-n2cc(-c3ccccc3)nc2S)cc1
- IC50 [2]: > 122 µM (inactive)

SMILES: Cc1cccc(-c2nc(NCCCN(C)C)c3ccccc3n2)c1
- AC50 [3]: 9.69 µM (active)
- AC50 [4]: 21.4 µM (active)

SMILES: Oc1ccc2c3c1O[C@H]1c4[nH]c5c(c4CC4(O)C(C2)N(CC2CC2)CCC314)CC1(O)[C@H]2Cc3ccc(O)c4c3[C@@]1(CCN2CC1CC1)C5O4 (stereo partly specified)
- AC50 [3]: 11.1 µM (active)

SMILES: COc1ccc(CCC(C)NCc2ccc(Cl)c(Cl)c2)cc1 (stereo unspecified)
- AC50 [5]: 5.33 µM (active)
- AC50 [6]: 8.87 µM (active)
- AC50 [7]: 7.63 µM (active)
- AC50 [8]: 6.23 µM (active)
- AC50 [9]: 59.6 µM (active)

SMILES: COC(=O)c1ccccc1NC(=O)COC(=O)c1ccco1
- IC50 [1]: 56.7 µM (not active)

SMILES: Cc1cc(C)c2sc(NNC(=O)C3COc4ccccc4O3)nc2c1 (stereo unspecified)
- IC50 [2]: 26.2 µM (inactive)

SMILES: CCOc1ccccc1NC(=O)COc1cccc(-n2cnnn2)c1
- IC50 [1]: 69.2 µM (not active)

SMILES: O=C(c1ccccc1)n1nc(-c2ccccc2)nc1NCc1ccco1
- IC50 [10]: 1.72 µM (active)

SMILES: CC(C)Oc1ccc(C2CC(=O)N(c3cccc(C(=O)O)c3)C2=O)cc1 (stereo unspecified)
- IC50 [11]: > 109 µM (inactive)
- IC50 [12]: > 83.3 µM (inactive)

SMILES: c1cc2cc(CNc3nc(NCC4CC4)nc4ccsc34)ccc2o1
- AC50 [5]: 4.73 µM (active)
- AC50 [6]: 8.05 µM (active)
- AC50 [7]: 33.1 µM (active)
- AC50 [8]: 22.5 µM (active)
- AC50 [9]: 35.9 µM (active)

SMILES: O=C(NC(Cc1ccc(O)cc1)C(=O)O)c1ccco1 (stereo unspecified)
- IC50 [11]: > 109 µM (inactive)
- IC50 [12]: > 83.3 µM (inactive)

SMILES: CCc1cccc2c1Sc1ccccc1CC2N1CCNCC1 (stereo unspecified)
- EC50 [13]: > 120 µM (not active)
- EC50 [14]: > 120 µM (not active)
- CC50 [15]: 13 µM (active)
- EC50 [16]: > 120 µM (not active)
- EC50 [17]: 9.15 µM (active)
- AC50 [3]: 18 µM (active)
- EC50 [18]: 3.99 µM (active)

SMILES: CC(C)(C)C(=O)N1CCN(c2ccc(Cl)cc2[N+](=O)[O-])CC1
- IC50 [11]: > 109 µM (inactive)
- IC50 [12]: > 83.3 µM (inactive)

SMILES: FC(F)(F)c1cnc(NN=C(S)Nc2cccnc2)c(Cl)c1
- IC50 [2]: > 122 µM (inactive)

SMILES: CCC(C)NCCOc1ccc(C)cc1[N+](=O)[O-] (stereo unspecified)
- EC50 [19]: > 350 µM (not active)
- EC50 [20]: > 350 µM (not active)
- IC50 [10]: > 50 µM (not active)
